In patent US20250296971A1, “GASTRIC INHIBITORY PEPTIDE RECEPTOR LIGANDS” (priority 2021, published 2025):
Read-outs that look alike come from different tables or passages of the source. *1 amine or outer side, *2 acyl side, *3 side chain or, on linkers, in order; H or OH if unused. Where a SMILES comes first, the peptide text is derived from it. Bridges are numbered along the chain shown (N, C = ends). [ ]: non-standard residue; d: D form. The star is where a group is joined. NH(1-deoxy-D-glucityl) = OC[C@@H](O)[C@@H](O)[C@H](O)[C@@H](O)CN*; DOTA = O=C(O)CN1CCN(CC(=O)O)CCN(CC(=O)*)CCN(CC(=O)O)CC1; Trp(5-Cl) = N[C@@H](Cc1c[nH]c2ccc(Cl)cc12)C(=O)O; Trp(5-OH) = N[C@@H](Cc1c[nH]c2ccc(O)cc12)C(=O)O; Pyridine(2,6-diCH2) = c1cc(C[*:1])nc(C[*:2])c1; Pro(4R-NH2) = N[C@H]1CN[C@H](C(=O)O)C1; 1Nal = N[C@@H](Cc1cccc2ccccc12)C(=O)O; mXylylene = c1cc(C[*:1])cc(C[*:2])c1; Glutaryl = O=C(CCCC(=O)[*:2])[*:1]; Cya = N[C@@H](CS(=O)(=O)O)C(=O)O; Hyp = O=C(O)[C@@H]1C[C@@H](O)CN1; X1 = O=C(CN1CCC(N[*:1])CC1)[*:2]; Cit = NC(=O)NCCC[C@H](N)C(=O)O; hSer = N[C@@H](CCO)C(=O)O; Api = NC1(C(=O)O)CCNCC1; Thp = NC1(C(=O)O)CCOCC1; Aib = CC(C)(N)C(=O)O

Molecular target: T1, GIPR (CHO-K1-hGIPR cells) (Homo sapiens, UniProt P48546)
T1 construct: host or cells: CHO-K1
T1 sequence (P48546 22-466): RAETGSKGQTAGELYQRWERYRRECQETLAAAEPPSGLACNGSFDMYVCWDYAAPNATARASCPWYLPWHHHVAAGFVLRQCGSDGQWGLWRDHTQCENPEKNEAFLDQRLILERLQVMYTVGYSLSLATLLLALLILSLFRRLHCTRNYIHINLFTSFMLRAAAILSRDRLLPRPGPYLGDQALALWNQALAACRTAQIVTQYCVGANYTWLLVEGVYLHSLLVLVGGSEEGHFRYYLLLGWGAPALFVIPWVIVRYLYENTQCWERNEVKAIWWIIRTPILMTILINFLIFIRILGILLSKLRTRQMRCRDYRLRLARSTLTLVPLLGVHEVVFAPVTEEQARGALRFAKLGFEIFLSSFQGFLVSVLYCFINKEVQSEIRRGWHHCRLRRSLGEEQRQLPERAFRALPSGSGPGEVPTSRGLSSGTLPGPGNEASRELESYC
Experiment: FACS binding assay
Conditions: read-out: pIC50 Category (converted)
In short: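 CHO-K1 cells expressing human GIPR, washed in PBS/1% FCS, then stained with 1 μg/mL APC-streptavidin for 30 min on ice.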

[1] = competition with 20 nM GIP-057, 4° C. for 1 hour
[2] = competition with 20 nM GIP-057, 4° C., 1 hour

| Structure (SMILES) | IC50 [1] [nM] | IC50 [2] [nM] |
| --- | --- | --- |
| CC[C@H](C)[C@@H]1NC(=O)[C@H](CC(C)C)NC(=O)C(C)(C)NC(=O)[C@@H](NC(=O)[C@H](CCCNC(N)=O)NC(=O)[C@H](CCC(=O)O)NC(=O)[C@@H]2CCCN2C(=O)[C@H](Cc2cccc3ccccc23)NC(=O)[C@H](Cc2c[nH]c3ccccc23)NC(=O)[C@H](CC(=O)O)NC(C)=O)CSCc2cccc(c2)CSC[C@@H](C(N)=O)NC1=O [GIP-347, Ac-Asp-Trp-1Ni-Pro-Glu-Cit-[Cys(3MeBn)-Aib-Leu-Ile-Cys]-NH2] (Ac-DW[1Nal]PE[Cit]C[Aib]LIC-NH2; linker 7-11 via mXylylene) | > 1000 | – |
| CC[C@H](C)[C@@H]1NC(=O)[C@H](CC(C)C)NC(=O)[C@H](CCCCNC(=O)CN2CCN(CC(=O)O)CCN(CC(=O)O)CCN(CC(=O)O)CC2)NC(=O)[C@@H](NC(=O)[C@@H](CC(C)C)NC(=O)[C@H](CCC(=O)O)NC(=O)[C@@H]2C[C@@H](N)CN2C(=O)[C@H](Cc2c[nH]c3ccc(Cl)cc23)NC(=O)[C@H](Cc2c[nH]c3ccccc23)NC(=O)[C@H](CC(=O)O)NC(=O)CCCC(=O)NC[C@H](O)[C@@H](O)[C@H](O)[C@H](O)CO)CSCc2cccc(n2)CSC[C@@H](C(=O)NC2CCN(CC(=O)N[C@H](CCC(=O)NC[C@H](O)[C@@H](O)[C@H](O)[C@H](O)CO)C(N)=O)CC2)NC1=O [GIP-024, AGLU-Glutar-Asp-Trp-5Clw-Tap-Glu-leu-[Cys(2Lut)-Lys(DOTA)-Leu-Ile-Cys]-APAc-glu(AGLU)-NH2] ({NH(1-deoxy-D-glucityl)-Glutaryl}-DW[Trp(5-Cl)][Pro(4R-NH2)]E[dL]CK(DOTA)LIC[X1][dE](NH(1-deoxy-D-glucityl))-NH2; linker 7-11 via Pyridine(2,6-diCH2)) | – | < 10 |
| CC[C@H](C)[C@@H]1NC(=O)[C@H](CC(C)C)NC(=O)[C@H](C)NC(=O)[C@@H](NC(=O)[C@H](CC(C)C)NC(=O)[C@H](CCC(=O)O)NC(=O)[C@@H]2CCCN2C(=O)[C@H](Cc2c[nH]c3ccccc23)NC(=O)[C@H](Cc2c[nH]c3ccccc23)NC(=O)[C@H](CS(=O)(=O)O)NC(C)=O)CSCc2cccc(c2)CSC[C@@H](C(N)=O)NC1=O [GIP-317, Ac-Cya-Trp-Trp-Pro-Glu-Leu-[Cys(3MeBn)-Ala-Leu-Ile-Cys]-NH2] (Ac-[Cya]WWPELCALIC-NH2; linker 7-11 via mXylylene) | 100 to 794 | – |
| CC[C@H](C)[C@@H]1NC(=O)[C@H](CC(C)C)NC(=O)C2(CCOCC2)NC(=O)[C@@H](NC(=O)[C@@H](CC(C)C)NC(=O)[C@H](CCC(=O)O)NC(=O)[C@@H]2C[C@@H](O)CN2C(=O)[C@H](Cc2c[nH]c3ccc(Cl)cc23)NC(=O)[C@H](Cc2c[nH]c3ccc(O)cc23)NC(=O)[C@H](CC(=O)O)NC(C)=O)CSCc2cccc(n2)CSC[C@@H](C(N)=O)NC1=O [GIP-220, Ac-Asp-Hyw-5Clw-Hyp-Glu-leu-[Cys(2Lut)-Thp-Leu-Ile-Cys]-NH2] (Ac-D[Trp(5-OH)][Trp(5-Cl)][Hyp]E[dL]C[Thp]LIC-NH2; linker 7-11 via Pyridine(2,6-diCH2)) | – | < 10 |
| CC[C@H](C)[C@@H]1NC(=O)[C@H](CC(C)C)NC(=O)C2(CCN(C(=O)CN3CCN(CC(=O)O)CCN(CC(=O)O)CCN(CC(=O)O)CC3)CC2)NC(=O)[C@@H](NC(=O)[C@@H](CC(C)C)NC(=O)[C@H](CCC(=O)O)NC(=O)[C@@H]2C[C@@H](N)CN2C(=O)[C@H](Cc2c[nH]c3ccc(Cl)cc23)NC(=O)[C@H](Cc2c[nH]c3ccccc23)NC(=O)[C@H](CCO)NC(=O)CN2CCC(NC(=O)CCCC(=O)NC[C@H](O)[C@@H](O)[C@H](O)[C@H](O)CO)CC2)CSCc2cccc(n2)CSC[C@@H](C(=O)NC2CCN(CC(=O)N[C@H](CCC(=O)NC[C@H](O)[C@@H](O)[C@H](O)[C@H](O)CO)C(N)=O)CC2)NC1=O [GIP-050, AGLU-Glutar-APAc-Hse-Trp-5Clw-Tap-Glu-leu-[Cys(2Lut)-Apc(DOTA)-Leu-Ile-Cys]-APAc-glu(AGLU)-NH] ({NH(1-deoxy-D-glucityl)-Glutaryl}-[X1][hSer]W[Trp(5-Cl)][Pro(4R-NH2)]E[dL]C[Api](DOTA)LIC[X1][dE](NH(1-deoxy-D-glucityl))-NH2; linker 8-12 via Pyridine(2,6-diCH2)) | – | 10 to 79.4 |
